Columns and labels:
[1] = tested on: hY1-CHO; assay: Non-specific binding of agonists, saturation and time course, hY1-CHO; settings: hyperbolic fit; 50 pM tracer at 100 nM unlabeled peptide over 3, 6, 10, 20 and 30 min at 25 °C
[2] = molecular target: T1, human Y5 receptor (Homo sapiens, UniProt Q15761); settings: uncompeted specific binding at 50 pM [125I]agonist as percent of the specific binding of [125I]hNPY; human Y5 in HEK293 cells; ± S.E.M.; SEM
T1 sequence (Q15761 1-445): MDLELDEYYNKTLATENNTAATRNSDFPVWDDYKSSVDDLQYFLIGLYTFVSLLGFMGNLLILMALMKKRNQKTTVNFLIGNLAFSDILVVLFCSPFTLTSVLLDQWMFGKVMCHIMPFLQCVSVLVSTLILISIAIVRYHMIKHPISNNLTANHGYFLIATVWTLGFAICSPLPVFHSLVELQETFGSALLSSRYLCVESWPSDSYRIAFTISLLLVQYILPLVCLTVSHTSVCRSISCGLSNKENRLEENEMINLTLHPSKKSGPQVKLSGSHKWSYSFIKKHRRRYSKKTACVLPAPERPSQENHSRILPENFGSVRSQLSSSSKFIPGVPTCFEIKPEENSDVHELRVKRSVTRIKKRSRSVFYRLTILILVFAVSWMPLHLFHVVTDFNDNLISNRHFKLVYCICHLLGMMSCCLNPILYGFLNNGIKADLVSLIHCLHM

Substance: human (Leu^31,Pro^34) peptide YY [LP-hPYY]
- Half-period of equilibration of non-specific binding, hY1-CHO [1]: 1.72 ± 0.11 min
- % of NPY binding, Y5 [2]: 96.5 ±16%
